Experimental data: PubChem BioAssay (NCI)
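1) Cells in 96-well plates. 2) Compound, 48 h, 5 concentrations. 3) Linear interpolation between surrounding doses. 4) Unreached endpoint = highest concentration. The concentration for 50% growth inhibition is given as GI50. At the TGI there is no net growth.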

Experiments:
Assay in all cases: NCI tumour cell line growth inhibition, 48 h
OVCAR-5 ovarian = system: OVCAR-5 ovarian
HS 578T breast = system: HS 578T breast
UACC-257 melanoma = system: UACC-257 melanoma
OVCAR-8 ovarian = system: OVCAR-8 ovarian
SNB-19 CNS = system: SNB-19 CNS
HCC-2998 colon = system: HCC-2998 colon
CCRF-CEM leukemia = system: CCRF-CEM leukemia
DU-145 prostate = system: DU-145 prostate
SK-OV-3 ovarian = system: SK-OV-3 ovarian
ACHN renal = system: ACHN renal
MALME-3M melanoma = system: MALME-3M melanoma
SF-539 CNS = system: SF-539 CNS
K-562 leukemia = system: K-562 leukemia
SK-MEL-28 melanoma = system: SK-MEL-28 melanoma
EKVX NSCLC = system: EKVX NSCLC
MCF7 breast = system: MCF7 breast
M14 melanoma = system: M14 melanoma
UACC-62 melanoma = system: UACC-62 melanoma
MOLT-4 leukemia = system: MOLT-4 leukemia
NCI-H226 lung = system: NCI-H226 lung
BT-549 breast = system: BT-549 breast
CAKI-1 renal = system: CAKI-1 renal
SK-MEL-5 melanoma = system: SK-MEL-5 melanoma
MDA-MB-435 = system: MDA-MB-435
NCI-H23 lung = system: NCI-H23 lung
T-47D breast = system: T-47D breast
SF-295 CNS = system: SF-295 CNS
HCT-15 colon = system: HCT-15 colon
786-0 renal = system: 786-0 renal
MDA-MB-231 breast = system: MDA-MB-231 breast
RPMI-8226 leukemia = system: RPMI-8226 leukemia
SF-268 CNS = system: SF-268 CNS
UO-31 renal = system: UO-31 renal
COLO 205 colon = system: COLO 205 colon
HOP-62 NSCLC = system: HOP-62 NSCLC
TK-10 renal = system: TK-10 renal
SR leukemia = system: SR leukemia
KM12 colon = system: KM12 colon
A498 renal = system: A498 renal
NCI-H460 lung = system: NCI-H460 lung
PC-3 prostate = system: PC-3 prostate
HOP-92 NSCLC = system: HOP-92 NSCLC
NCI-H522 lung = system: NCI-H522 lung
IGROV1 ovarian = system: IGROV1 ovarian
U251 CNS = system: U251 CNS
NCI/ADR-RES ovarian = system: NCI/ADR-RES ovarian
SNB-75 CNS = system: SNB-75 CNS
A549 NSCLC = system: A549 NSCLC
SW-620 colon = system: SW-620 colon
SN12C renal = system: SN12C renal
HCT-116 colon = system: HCT-116 colon
RXF 393 renal = system: RXF 393 renal
LOX IMVI melanoma = system: LOX IMVI melanoma
OVCAR-3 ovarian = system: OVCAR-3 ovarian
HT29 colon = system: HT29 colon
SK-MEL-2 melanoma = system: SK-MEL-2 melanoma
OVCAR-4 ovarian = system: OVCAR-4 ovarian
HL-60(TB) leukemia = system: HL-60(TB) leukemia

## O=c1c(I)c[nH]cc1I
OVCAR-5 ovarian
  GI50: > 100 µM
  TGI: > 100 µM
HS 578T breast
  GI50: > 100 µM
  TGI: > 100 µM
UACC-257 melanoma
  GI50: > 100 µM
  TGI: > 100 µM
OVCAR-8 ovarian
  GI50: > 100 µM
  TGI: > 100 µM
SNB-19 CNS
  GI50: > 100 µM
  TGI: > 100 µM
HCC-2998 colon
  GI50: > 100 µM
  TGI: > 100 µM
CCRF-CEM leukemia
  GI50: > 100 µM
  TGI: > 100 µM
DU-145 prostate
  GI50: > 100 µM
  TGI: > 100 µM
SK-OV-3 ovarian
  GI50: > 100 µM
  TGI: > 100 µM
ACHN renal
  GI50: > 100 µM
  TGI: > 100 µM
MALME-3M melanoma
  GI50: > 100 µM
  TGI: > 100 µM
SF-539 CNS
  GI50: > 100 µM
  TGI: > 100 µM
K-562 leukemia
  GI50: > 100 µM
  TGI: > 100 µM
SK-MEL-28 melanoma
  GI50: > 100 µM
  TGI: > 100 µM
EKVX NSCLC
  GI50: > 100 µM
  TGI: > 100 µM
MCF7 breast
  GI50: > 100 µM
  TGI: > 100 µM
M14 melanoma
  GI50: > 100 µM
  TGI: > 100 µM
UACC-62 melanoma
  GI50: > 100 µM
  TGI: > 100 µM
MOLT-4 leukemia
  GI50: > 100 µM
  TGI: > 100 µM
NCI-H226 lung
  GI50: > 100 µM
  TGI: > 100 µM
BT-549 breast
  GI50: > 100 µM
  TGI: > 100 µM
CAKI-1 renal
  GI50: > 100 µM
  TGI: > 100 µM
SK-MEL-5 melanoma
  GI50: > 100 µM
  TGI: > 100 µM
MDA-MB-435
  GI50: > 100 µM
  TGI: > 100 µM
NCI-H23 lung
  GI50: > 100 µM
  TGI: > 100 µM
T-47D breast
  GI50: > 100 µM
  TGI: > 100 µM
SF-295 CNS
  GI50: > 100 µM
  TGI: > 100 µM
HCT-15 colon
  GI50: > 100 µM
  TGI: > 100 µM
786-0 renal
  GI50: > 100 µM
  TGI: > 100 µM
MDA-MB-231 breast
  GI50: > 100 µM
  TGI: > 100 µM
RPMI-8226 leukemia
  GI50: > 100 µM
  TGI: > 100 µM
SF-268 CNS
  GI50: > 100 µM
  TGI: > 100 µM
UO-31 renal
  GI50: > 100 µM
  TGI: > 100 µM
COLO 205 colon
  GI50: > 100 µM
  TGI: > 100 µM
HOP-62 NSCLC
  GI50: > 100 µM
  TGI: > 100 µM
TK-10 renal
  GI50: > 100 µM
  TGI: > 100 µM
SR leukemia
  GI50: > 100 µM
  TGI: > 100 µM
KM12 colon
  GI50: > 100 µM
  TGI: > 100 µM
A498 renal
  GI50: > 100 µM
  TGI: > 100 µM
NCI-H460 lung
  GI50: > 100 µM
  TGI: > 100 µM
PC-3 prostate
  GI50: > 100 µM
  TGI: > 100 µM
HOP-92 NSCLC
  GI50: 67.1 µM
  TGI: > 100 µM
NCI-H522 lung
  GI50: > 100 µM
  TGI: > 100 µM
IGROV1 ovarian
  GI50: 98.3 µM
  TGI: > 100 µM
U251 CNS
  GI50: > 100 µM
  TGI: > 100 µM
NCI/ADR-RES ovarian
  GI50: > 100 µM
  TGI: > 100 µM
SNB-75 CNS
  GI50: > 100 µM
  TGI: > 100 µM
A549 NSCLC
  GI50: > 100 µM
  TGI: > 100 µM
SW-620 colon
  GI50: > 100 µM
  TGI: > 100 µM
SN12C renal
  GI50: > 100 µM
  TGI: > 100 µM
HCT-116 colon
  GI50: > 100 µM
  TGI: > 100 µM
RXF 393 renal
  GI50: > 100 µM
  TGI: > 100 µM
LOX IMVI melanoma
  GI50: > 100 µM
  TGI: > 100 µM
OVCAR-3 ovarian
  GI50: > 100 µM
  TGI: > 100 µM
HT29 colon
  GI50: > 100 µM
  TGI: > 100 µM
SK-MEL-2 melanoma
  GI50: > 100 µM
  TGI: > 100 µM
OVCAR-4 ovarian
  GI50: > 100 µM
  TGI: > 100 µM
HL-60(TB) leukemia
  GI50: > 100 µM
  TGI: > 100 µM
